In general, inhibition refers to the change of the read-out against control, counted positive when it falls. The low end stands for a response near the control, the high end for a response far below the control. A word on the AUC(0-inf): it is the area under the concentration-time curve extrapolated to infinity.

Drawing on ChEMBL document CHEMBL5236590, “Discovery of Novel N-(5-(Pyridin-3-yl)-1H-indazol-3-yl)benzamide Derivatives as Potent Cyclin-Dependent Kinase 7 Inhibitors for the Treatment of Autosomal Dominant Polycystic Kidney Disease” (J Med Chem, 2022), this text covers inhibition, AUC(0-inf) and Vd for one compound.

Data set [1] deals with Serine/threonine-protein kinase Chk1 (Homo sapiens) (UniProt O14757). Description: Inhibition of human partial length wild type CHK1 expressed in bacterial system at 1 uM by KINOMEscan analysis relative to control.
Data set [2] in a line: Observed AUC (infinitive) in ICR mouse at 5 mg/kg, iv single dose measured upto 24 hrs. Type of data set: ADME, organism-based. Also noted: dose 5 mg/kg, time < 24 hrs, route iv. As to conditions: in vivo.
The target of data set [3] is Ribosomal protein S6 kinase beta-1 (Homo sapiens) (UniProt P23443). Description: Inhibition of human partial length wild type p70S6K (M1/S421) expressed in mammalian system at 1 uM by KINOMEscan analysis relative to control.
Data set [4] can be described thus: Observed volume of distribution at steady state in ICR mouse at 5 mg/kg, iv single dose measured upto 24 hrs. In kind it is ADME, organism-based. As to conditions: in vivo, read-out: Vdss.
Data set [5] addresses Tyrosine-protein kinase receptor TYRO3 (Homo sapiens) (UniProt Q06418). In words: Inhibition of RSE (unknown origin) at 1 uM relative to control.
The target in data set [6] is Casein kinase I isoform gamma-1 (Homo sapiens) (UniProt Q9HCP0). In words: Inhibition of human partial length wild type CKlgamma1 (T15/S353) expressed in bacterial system at 1 uM by KINOMEscan analysis relative to control.
Data set [7] concerns the target Mitogen-activated protein kinase kinase kinase 5 (Homo sapiens) (UniProt Q99683). Description: Inhibition of human partial length wild type ASK1 expressed in bacterial system at 1 uM by KINOMEscan analysis relative to control.
The target in data set [8] is Glycogen synthase kinase-3 beta (Homo sapiens) (UniProt P49841). In words: Inhibition of human full length GSK3beta expressed in mammalian system at 1 uM by KINOMEscan analysis relative to control.
Data set [9] concerns the target Insulin-like growth factor 1 receptor (Homo sapiens) (UniProt P08069). Description: Inhibition of human partial length wild type IGF-1R (L972/D1294) expressed in bacterial system at 1 uM by KINOMEscan analysis relative to control.
In data set [10] the target is Serine/threonine-protein kinase 4 (Homo sapiens) (UniProt Q13043). In words: Inhibition of human full length wild type MST1 expressed in mammalian system at 1 uM by KINOMEscan analysis relative to control.
Data set [11] addresses Tyrosine-protein kinase ABL1 (Homo sapiens) (UniProt P00519). Description: Inhibition of human partial length Ab1 (S229/K512) expressed in mammalian system at 1 uM by KINOMEscan analysis relative to control.
Data set [12] addresses RAF proto-oncogene serine/threonine-protein kinase (Homo sapiens) (UniProt P04049). Description: Inhibition of human partial length wild type c-RAF (I330/T640) expressed in bacterial system at 1 uM by KINOMEscan analysis relative to control.
The target in data set [13] is Serine/threonine-protein kinase 17A (Homo sapiens) (UniProt Q9UEE5). In words: Inhibition of human partial length wild type DRAK1 expressed in bacterial system at 1 uM by KINOMEscan analysis relative to control.
The species named for data set [14] is Homo sapiens. Description: Inhibition of PIK3 (unknown origin) at 1 uM relative to control.

Chain of Insulin-like growth factor 1 receptor (Homo sapiens) (P08069 31-736 limits assumed): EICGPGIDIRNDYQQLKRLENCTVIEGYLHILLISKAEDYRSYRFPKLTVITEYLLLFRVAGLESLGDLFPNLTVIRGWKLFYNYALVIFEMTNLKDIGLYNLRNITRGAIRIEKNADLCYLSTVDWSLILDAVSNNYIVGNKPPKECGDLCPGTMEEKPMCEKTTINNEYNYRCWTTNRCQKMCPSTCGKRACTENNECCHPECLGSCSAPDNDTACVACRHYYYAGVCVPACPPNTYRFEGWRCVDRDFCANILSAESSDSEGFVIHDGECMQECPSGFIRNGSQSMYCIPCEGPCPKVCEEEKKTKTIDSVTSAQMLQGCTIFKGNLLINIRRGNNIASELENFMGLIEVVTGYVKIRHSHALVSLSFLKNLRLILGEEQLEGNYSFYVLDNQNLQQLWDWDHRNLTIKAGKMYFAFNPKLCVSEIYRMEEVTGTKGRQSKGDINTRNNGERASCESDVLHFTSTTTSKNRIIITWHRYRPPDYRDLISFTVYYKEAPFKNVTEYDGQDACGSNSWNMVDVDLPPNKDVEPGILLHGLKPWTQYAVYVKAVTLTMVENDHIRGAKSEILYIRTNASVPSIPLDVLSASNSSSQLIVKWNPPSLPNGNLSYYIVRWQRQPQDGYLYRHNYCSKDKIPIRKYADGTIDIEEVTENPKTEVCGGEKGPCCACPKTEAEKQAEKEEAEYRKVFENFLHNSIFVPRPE
Chain of Insulin-like growth factor 1 receptor (Homo sapiens) (P08069 741-1367 limits assumed): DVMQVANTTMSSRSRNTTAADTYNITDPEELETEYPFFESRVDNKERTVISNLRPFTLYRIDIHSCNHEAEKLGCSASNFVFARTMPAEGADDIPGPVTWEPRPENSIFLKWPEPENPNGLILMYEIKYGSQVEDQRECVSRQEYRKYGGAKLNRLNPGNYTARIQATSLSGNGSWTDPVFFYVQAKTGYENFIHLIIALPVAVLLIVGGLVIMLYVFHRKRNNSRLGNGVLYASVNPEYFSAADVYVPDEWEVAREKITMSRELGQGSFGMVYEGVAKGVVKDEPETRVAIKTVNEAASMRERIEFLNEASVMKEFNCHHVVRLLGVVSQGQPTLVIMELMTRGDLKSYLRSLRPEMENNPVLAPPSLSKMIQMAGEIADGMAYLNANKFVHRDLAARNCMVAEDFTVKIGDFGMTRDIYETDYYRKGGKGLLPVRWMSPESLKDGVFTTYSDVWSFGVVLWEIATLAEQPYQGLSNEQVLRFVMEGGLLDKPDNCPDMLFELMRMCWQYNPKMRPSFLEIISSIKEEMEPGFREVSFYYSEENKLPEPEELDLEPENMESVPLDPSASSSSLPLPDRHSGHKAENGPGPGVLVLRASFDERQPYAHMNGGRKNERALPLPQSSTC
Chain of Ribosomal protein S6 kinase beta-1 (Homo sapiens) (P23443 whole entry, looked up): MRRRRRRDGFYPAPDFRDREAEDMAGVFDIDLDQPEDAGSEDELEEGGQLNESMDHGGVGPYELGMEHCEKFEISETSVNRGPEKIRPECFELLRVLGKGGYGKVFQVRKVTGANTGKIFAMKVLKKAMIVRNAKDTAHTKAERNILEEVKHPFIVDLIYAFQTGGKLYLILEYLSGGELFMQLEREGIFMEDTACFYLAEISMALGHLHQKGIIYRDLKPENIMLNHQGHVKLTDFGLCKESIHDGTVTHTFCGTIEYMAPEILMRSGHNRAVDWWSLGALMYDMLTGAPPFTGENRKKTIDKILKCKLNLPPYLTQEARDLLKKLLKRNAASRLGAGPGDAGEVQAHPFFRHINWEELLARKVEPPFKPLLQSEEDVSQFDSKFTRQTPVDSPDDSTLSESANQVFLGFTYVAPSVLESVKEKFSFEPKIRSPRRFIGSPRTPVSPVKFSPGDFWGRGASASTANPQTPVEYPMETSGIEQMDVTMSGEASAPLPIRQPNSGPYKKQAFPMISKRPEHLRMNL
Chain of RAF proto-oncogene serine/threonine-protein kinase (Homo sapiens) (P04049 whole entry): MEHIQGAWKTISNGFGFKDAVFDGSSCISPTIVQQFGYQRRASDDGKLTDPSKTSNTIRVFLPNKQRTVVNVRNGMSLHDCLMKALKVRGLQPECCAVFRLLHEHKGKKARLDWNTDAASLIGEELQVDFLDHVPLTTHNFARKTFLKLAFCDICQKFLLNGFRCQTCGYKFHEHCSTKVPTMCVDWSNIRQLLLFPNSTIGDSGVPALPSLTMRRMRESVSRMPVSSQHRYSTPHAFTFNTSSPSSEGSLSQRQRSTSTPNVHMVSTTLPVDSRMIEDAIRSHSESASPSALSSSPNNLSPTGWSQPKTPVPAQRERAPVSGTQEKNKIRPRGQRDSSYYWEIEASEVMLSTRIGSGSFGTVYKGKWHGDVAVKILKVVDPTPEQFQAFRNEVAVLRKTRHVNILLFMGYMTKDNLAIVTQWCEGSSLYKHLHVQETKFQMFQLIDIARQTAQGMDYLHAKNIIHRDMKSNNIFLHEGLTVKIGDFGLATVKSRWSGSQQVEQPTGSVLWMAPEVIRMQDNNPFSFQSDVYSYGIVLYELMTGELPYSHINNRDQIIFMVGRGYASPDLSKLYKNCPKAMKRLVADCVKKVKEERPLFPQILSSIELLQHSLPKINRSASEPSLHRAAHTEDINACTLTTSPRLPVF
Chain of Tyrosine-protein kinase ABL1 (Homo sapiens) (P00519 whole entry): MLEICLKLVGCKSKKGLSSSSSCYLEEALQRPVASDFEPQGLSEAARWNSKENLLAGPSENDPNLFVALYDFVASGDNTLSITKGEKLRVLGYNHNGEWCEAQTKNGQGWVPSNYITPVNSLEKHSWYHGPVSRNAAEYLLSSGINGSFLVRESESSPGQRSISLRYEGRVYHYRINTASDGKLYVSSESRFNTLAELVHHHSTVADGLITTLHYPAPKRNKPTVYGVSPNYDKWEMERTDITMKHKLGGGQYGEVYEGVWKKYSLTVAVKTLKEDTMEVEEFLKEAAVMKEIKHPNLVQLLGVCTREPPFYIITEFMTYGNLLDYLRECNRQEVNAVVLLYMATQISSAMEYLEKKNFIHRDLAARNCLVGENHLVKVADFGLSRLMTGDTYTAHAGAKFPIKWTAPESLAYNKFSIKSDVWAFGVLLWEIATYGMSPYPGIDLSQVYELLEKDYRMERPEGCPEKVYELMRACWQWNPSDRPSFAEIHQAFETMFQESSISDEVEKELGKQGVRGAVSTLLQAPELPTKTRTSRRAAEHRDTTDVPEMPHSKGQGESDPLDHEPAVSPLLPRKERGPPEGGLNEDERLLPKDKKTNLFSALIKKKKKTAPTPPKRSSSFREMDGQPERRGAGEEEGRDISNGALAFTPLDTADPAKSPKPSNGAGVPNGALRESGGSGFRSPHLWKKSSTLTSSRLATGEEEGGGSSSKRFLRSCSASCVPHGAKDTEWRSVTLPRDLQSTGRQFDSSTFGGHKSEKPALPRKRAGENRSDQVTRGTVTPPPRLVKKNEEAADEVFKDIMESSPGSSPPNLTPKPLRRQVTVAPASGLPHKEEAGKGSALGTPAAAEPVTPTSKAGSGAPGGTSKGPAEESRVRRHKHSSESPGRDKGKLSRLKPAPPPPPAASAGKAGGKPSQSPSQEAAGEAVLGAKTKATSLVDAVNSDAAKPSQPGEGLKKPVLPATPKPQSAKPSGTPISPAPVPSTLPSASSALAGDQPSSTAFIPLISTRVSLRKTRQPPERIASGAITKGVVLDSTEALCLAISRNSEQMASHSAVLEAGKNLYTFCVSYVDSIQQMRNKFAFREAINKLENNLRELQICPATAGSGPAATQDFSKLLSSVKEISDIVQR
Chain of Serine/threonine-protein kinase 17A (Homo sapiens) (Q9UEE5 whole entry): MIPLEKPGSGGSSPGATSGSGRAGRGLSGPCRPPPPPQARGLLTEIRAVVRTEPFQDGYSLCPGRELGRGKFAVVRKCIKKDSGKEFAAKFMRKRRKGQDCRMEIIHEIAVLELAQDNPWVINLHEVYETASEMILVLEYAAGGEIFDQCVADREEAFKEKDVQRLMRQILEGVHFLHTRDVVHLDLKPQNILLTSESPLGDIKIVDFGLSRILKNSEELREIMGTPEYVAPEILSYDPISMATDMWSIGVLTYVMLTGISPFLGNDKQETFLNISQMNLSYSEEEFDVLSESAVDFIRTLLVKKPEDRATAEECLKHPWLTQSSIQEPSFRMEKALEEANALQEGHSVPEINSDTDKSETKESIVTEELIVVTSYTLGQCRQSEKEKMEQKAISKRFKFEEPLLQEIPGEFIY
Chain of Serine/threonine-protein kinase Chk1 (Homo sapiens) (O14757 whole entry): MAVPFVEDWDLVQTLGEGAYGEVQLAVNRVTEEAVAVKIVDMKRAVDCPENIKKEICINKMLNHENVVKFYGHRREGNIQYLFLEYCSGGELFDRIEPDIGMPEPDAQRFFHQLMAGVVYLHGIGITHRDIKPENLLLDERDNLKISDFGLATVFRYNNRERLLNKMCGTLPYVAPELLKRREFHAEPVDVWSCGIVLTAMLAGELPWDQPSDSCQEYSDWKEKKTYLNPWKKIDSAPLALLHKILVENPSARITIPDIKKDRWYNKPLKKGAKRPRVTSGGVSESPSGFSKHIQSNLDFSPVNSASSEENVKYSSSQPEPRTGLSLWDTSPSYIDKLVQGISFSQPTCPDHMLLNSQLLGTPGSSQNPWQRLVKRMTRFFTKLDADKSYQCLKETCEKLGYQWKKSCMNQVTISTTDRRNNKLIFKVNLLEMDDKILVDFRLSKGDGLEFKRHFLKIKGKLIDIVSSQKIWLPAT
Chain of Serine/threonine-protein kinase 4 (Homo sapiens) (Q13043 whole entry): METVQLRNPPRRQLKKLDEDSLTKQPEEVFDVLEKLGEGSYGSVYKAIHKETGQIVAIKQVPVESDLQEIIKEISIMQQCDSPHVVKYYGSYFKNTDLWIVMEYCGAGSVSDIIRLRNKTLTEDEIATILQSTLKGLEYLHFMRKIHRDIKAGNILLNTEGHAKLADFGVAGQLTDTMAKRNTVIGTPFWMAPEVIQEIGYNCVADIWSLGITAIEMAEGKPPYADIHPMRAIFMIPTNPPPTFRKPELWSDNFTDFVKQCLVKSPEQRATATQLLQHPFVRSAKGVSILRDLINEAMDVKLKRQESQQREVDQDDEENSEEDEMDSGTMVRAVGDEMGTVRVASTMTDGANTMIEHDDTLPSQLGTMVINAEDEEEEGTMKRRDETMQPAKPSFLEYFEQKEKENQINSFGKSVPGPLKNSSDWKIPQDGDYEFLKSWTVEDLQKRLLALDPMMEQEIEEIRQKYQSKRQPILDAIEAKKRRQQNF

As for `C=CC(=O)Nc1ccc(C(=O)Nc2n[nH]c3ccc(-c4cncc(NC[C@@H](O)c5ccccc5)c4)cc23)cc1`, the inhibition is under 50% in data set [1]; under 50% in [3]; under 50% in [5]; under 50% in [6]; under 50% in [7]; 99% in [8]. The inhibition in data set [9] is under 50%; in data set [10], under 50%; in [11], under 50%; in data set [12] it was under 50%; in data set [13], 66%; in [14], under 50%. This compound also came in with an AUC(0-inf) in data set [2] of 31700 ng·h/mL. Moreover, the Vd in data set [4] is 1.28 L/kg.
